Values of other authors as cited in patent publication US20240170163A1, “SYSTEMS AND METHODS FOR DETECTING NEW DRUG PROPERTIES IN TARGET-BASED DRUG-DRUG SIMILARITY NETWORKS” (priority 2021, published 2024).
Blank lines part the entries; values can stand above or below the compound they belong to.

What was measured:
Candida = settings: liquid formulation, in vitro
Candida albicans = settings: in vitro
Klebsiella pneumoniae = settings: in vitro
prostate carcinoma cells = settings: in vitro
[1] = tested on: chronic lymphocytic leukemia (CLL)
[2] = tested on: PR-transfected MDA-MB-231 cells

SMILES: N=C(N)NC(=O)c1nc(Cl)c(N)nc1N [Amiloride]
activation of the dendritic cells (dendritic cells): inhibits the activation
inflammation (dendritic cells; besides its diuretic effects): ameliorates the inflammation

SMILES: FC(F)OC(Cl)C(F)(F)F (stereo not shown) [Isoflurane]
anti-Candida activity compared with Amphotericin B (Candida): better anti-Candida activity
inhibitory effects on cultures of Candida albicans (Candida albicans): excellent inhibitory effects
inhibitory effects on cultures of Klebsiella pneumoniae (Klebsiella pneumoniae): excellent inhibitory effects

SMILES: COC(F)(F)C(Cl)Cl [Methoxyflurane]
inhibitory effects on cultures of Candida albicans (Candida albicans): excellent inhibitory effects
inhibitory effects on cultures of Klebsiella pneumoniae (Klebsiella pneumoniae): excellent inhibitory effects

SMILES: NC(Cn1ccc(=O)c(O)c1)C(=O)O (stereo not shown) [Mimosine]
cell proliferation of prostate carcinoma cells (prostate carcinoma cells): attenuates cell proliferation

SMILES: COc1cc([C@@H]2c3cc4c(cc3[C@H](O)[C@H]3COC(=O)[C@H]23)OCO4)cc(OC)c1OC [Podofilox]
cytotoxicity in chronic lymphocytic leukemia (CLL) [1]: potent cytotoxic agent

SMILES: CC(=O)[C@H]1CC[C@H]2[C@@H]3CCC4=CC(=O)CC[C@]4(C)[C@H]3CC[C@]12C [Progesterone]
expression of genes involved in cell proliferation and metastasis [2]: suppressed the expression

topoisomerase activity in breast cancer (breast cancer): inhibits topoisomerase activity
SMILES: CCN(CC)CCCC(C)Nc1c2ccc(Cl)cc2nc2ccc(OC)cc12 (stereo not shown) [Quinacrine]
DNA damage in breast cancer (breast cancer): induces DNA damage
apoptosis / cell cycle effect in breast cancer (breast cancer): produces apoptosis by blocking cells in S-phase
